Reference: patent publication US20090315454A1, “IRIDIUM COMPLEX COMPOUND, ORGANIC ELECTROLUMINESCENT DEVICE OBTAINED BY USING THE SAME, AND USES OF THE DEVICE” (Showa Denko K.K., priority 2006, published 2009)

Assay: Solubility test (visual, complete dissolution at prescribed concentration)
Format: physicochemical
Design: key: A: completely dissolved; B: partially undissolved
Settings: stirred at room temperature for one hour
Procedure: The facial and meridional iridium complex compounds (A) synthesized in Example 1 and the facial iridium complex compounds (B) to (D) synthesized in Examples 2 to 4 were tested for solubility. The test was carried out by mixing the iridium complex compound with chloroform or toluene so that a prescribed concentration was obtained, and visually determining if the iridium complex compound was completely dissolved or partially undissolved after the mixture had been stirred at room temperature for one hour.
Iridium complex compounds Ir(ppy)3 (the following Formula (Y)) and Ir(Fppy)3 (the following Formula (X)) were tested for solubility. The test was carried out by mixing the iridium complex compound with chloroform or toluene so that a prescribed concentration was obtained, and visually determining if the iridium complex compound was completely dissolved or partially undissolved after the mixture had been stirred at room temperature for one hour.

Row | Compound | Solubility at concentration 0.1 wt % (chloroform) | Solubility at concentration 0.5 wt % (chloroform) | Solubility at concentration 1 wt % (chloroform) | Solubility at concentration 0.1 wt % (toluene) | Solubility at concentration 0.5 wt % (toluene) | Solubility at concentration 1 wt % (toluene)
1 | CC(C)(C)c1ccnc(-c2[c-]cc(F)cc2F)c1.CC(C)(C)c1ccnc(-c2[c-]cc(F)cc2F)c1.CC(C)(C)c1ccnc(-c2[c-]cc(F)cc2F)c1.[Ir+3] [Compound (A) meridional complex] | A | A | A | A | A | A
2 | CCCCCc1ccnc(-c2c(F)cc(F)c[c]2[Ir]([c]2cc(F)cc(F)c2-c2cc(CCCCC)ccn2)[c]2cc(F)cc(F)c2-c2cc(CCCCC)ccn2)c1 [Compound (B) facial complex] | A | A | A | A | B | B
3 | CCCCC(CCCC)c1ccnc(-c2c(F)cc(F)c[c]2[Ir]([c]2cc(F)cc(F)c2-c2cc(C(CCCC)CCCC)ccn2)[c]2cc(F)cc(F)c2-c2cc(C(CCCC)CCCC)ccn2)c1 [Compound (C) facial complex] | A | A | A | A | A | B
4 | CCCc1cc(-c2c(F)cc(F)c[c]2[Ir]([c]2cc(F)cc(F)c2-c2cc(CCC)c(CC)cn2)[c]2cc(F)cc(F)c2-c2cc(CCC)c(CC)cn2)ncc1CC [Compound (D) facial complex] | A | A | A | A | A | A
